This note sets out measurements from patent publication US20240279233A1, “MACROCYCLIC TAK1 INHIBITORS” (Aqilion AB, priority 2021, published 2024).

For series [1], the target named is human recombinant TAK1-TAB1 Kinase (TAK1 (1-303) and TAB1 (437-end)) (Homo sapiens (Human), UniProt O43318). As to the kind of experiment: TAK1 biochemical ADP-Glo kinase assay. The following applies: MBP substrate. An outline of the steps: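 Inhibition of human recombinant TAK1-TAB1 kinase was measured with a Promega ADP-Glo luminescence assay in 384-well plates. Compounds in 5% DMSO were pre-incubated 10 min with 2 μl TAK1-TAB1 (7.5 ng/μl) in buffer of Tris pH 7.5, MgCl2, DTT and BSA. MBP substrate and ATP were then added for 1 hour at room temperature. ADP-Glo reagent and kinase detection substrate followed, luminescence was read on an Envision, and IC50 came from non-linear regression.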
For orientation: ADP-Glo first removes unused ATP, then detects ADP through luciferase.

Series [2] is described as follows: Solubility assay in phosphate buffer. Particulars: phosphate buffer, pH 7.4, aqueous buffer, kinetic from dmso stock.
Procedure: The aqueous solubility of selected example compounds was determined as follows; 6 μL of DMSO stock solution of the selected example was added to 594 μL phosphate buffer (100 mM, pH 7.4). The resulting mixture was equilibrated over night (20-24 h, Alligator Shaker, room temperature). The mixture was then filtered (Millex LH 0.45 μm) and the concentration/solubility was determined by LC-UV quantification.
The mark [3] stands for this setting: 10 μM ATP, read-out: TAK1 Mean IC50 (nM) @ 10 μM ATP.
Where [4] appears, read: 1 mM ATP, read-out: TAK1 Mean IC50 (nM) @ 1 mM ATP.
Setting [5] is: Solubility (μM), phosphate buffer 100 mM, pH 7.4, room temperature, 20-24 h, LC-UV.

The structures appear in SMILES notation. Values after ≈ are worked out from the molar mass of the structure shown. Like-named read-outs stand apart in the source and are kept apart here.

human recombinant TAK1-TAB1 Kinase (TAK1 (1-303) and TAB1 (437-end)), sequence (O43318 other isoform, or with tags, fused parts or gaps): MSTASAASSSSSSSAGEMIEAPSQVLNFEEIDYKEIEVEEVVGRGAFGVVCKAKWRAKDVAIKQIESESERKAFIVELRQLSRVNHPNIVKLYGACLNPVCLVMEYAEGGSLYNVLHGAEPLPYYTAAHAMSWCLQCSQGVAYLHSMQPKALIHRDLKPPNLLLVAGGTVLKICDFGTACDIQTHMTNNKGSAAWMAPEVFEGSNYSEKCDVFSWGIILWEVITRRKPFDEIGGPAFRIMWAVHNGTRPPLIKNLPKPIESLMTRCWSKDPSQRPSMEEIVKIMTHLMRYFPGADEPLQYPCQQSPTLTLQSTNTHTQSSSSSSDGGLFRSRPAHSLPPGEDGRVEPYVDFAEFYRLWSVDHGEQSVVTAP

Turning to `CC1CCCCNC(=O)c2cccc(c2)C(=O)Nc2nc3cccc(C(=O)N(C)C)c3n21` (single isomer, unassigned) [Example 32, (E)-N,N,11-trimethyl-3,5-dioxo-1^2,1^3-dihydro-1^1H-2,6-diaza-1(2,1)-benzo[d]imidazola-4(1,3)-benzenacycloundecaphane-1^7-carboxamide], the IC50 was 3 nM in series [1] (setting [3]) and 14 nM in series [1] (setting [4]). This compound also returned a solubility in series [2] (setting [5]) of 95 µM (≈ 41.2 µg/mL).

Turning to `C[C@H]1CCCCNC(=O)c2cccc(c2)C(=O)Nc2nc3ccc(Cl)c(C(=O)N(C)C)c3n21` (single isomer, unassigned) [Example 54], the IC50 was 8 nM in series [1] (setting [3]) and 25 nM in series [1] (setting [4]). The compound further had a solubility in series [2] (setting [5]) of 9 µM (≈ 4.21 µg/mL).

As for `CC1CCCCNC(=O)c2cccc(c2)C(=O)/N=C2\Nc3cccc(C(=O)N(C)CCF)c3N21` (single isomer, unassigned) [Example 70, (E)-N-(2-fluoroethyl)-N,11-dimethyl-3,5-dioxo-1^2,1^3-dihydro-1^1H-2,6-diaza-1(2,1)-benzo[d]imidazola-4(1,3)-benzenacycloundecaphane-1^7-carboxamide], the results for the IC50 in series [1] (setting [3]) and in series [1] (setting [4]) were 5 nM and 6 nM, respectively. In series [2] (setting [5]), this compound registered a solubility of 90 µM (≈ 41.9 µg/mL).

For the compound `CC1CCCCNC(=O)c2cccc(c2)C(=O)/N=C2\Nc3cccc(C(=O)N4CCOC[C@H]4C)c3N21` (single isomer, unassigned) [Example 76], the IC50 in series [1] (setting [3]) was found to be 18 nM. In series [2] (setting [5]), this compound gave a solubility of 89 µM (≈ 43.6 µg/mL).

On to `CC1CCCCNC(=O)c2cccc(c2)C(=O)/N=C2\Nc3cccc(C(=O)N4CCOC[C@@H]4C)c3N21` (single isomer, unassigned) [Example 78], for which, in series [1] (setting [3]), the 50% inhibitory concentration (IC50) amounted to 8 nM. The compound also showed a solubility in series [2] (setting [5]) of 86 µM (≈ 42.1 µg/mL).

With `CC1CCCCNC(=O)c2cccc(c2)C(=O)/N=C2\Nc3cccc(C(=O)N4CC5(CCO5)C4)c3N21` (single isomer, unassigned) [Example 79, (E)-11-methyl-1^7-(1-oxa-6-azaspiro[3.3]heptane-6-carbonyl)-1^2,1^3-dihydro-1^1H-2,6-diaza-1(2,1)-benzo[d]imidazola-4(1,3)-benzenacycloundecaphane-3,5-dione], the IC50 worked out at 6 nM in series [1] (setting [3]) and 7 nM in series [1] (setting [4]). Further, the concentration in solution in series [2] (solubility) came to 90 µM (≈ 43.9 µg/mL).

As for `CC1CCCCNC(=O)c2cccc(c2)C(=O)/N=C2\Nc3cccc(C(=O)N4CC[C@H](F)C4)c3N21` (single isomer, unassigned) [Example 89], the IC50 in series [1] (setting [3]) turned out to be 6 nM. For the same compound, the solubility in series [2] (setting [5]) stood at 88 µM (≈ 42 µg/mL).

As for `CC1CCCCNC(=O)c2cccc(c2)C(=O)/N=C2\Nc3cccc(-c4nccn4C)c3N21` (single isomer, unassigned) [Example 136, (E)-11-methyl-1^7-(1-methyl-1H-imidazol-2-yl)-1^2,1^3-dihydro-1^1H-2,6-diaza-1(2,1)-benzo[d]imidazola-4(1,3)-benzenacycloundecaphane-3,5-dione], in series [1] (setting [3]), the IC50 was determined as 4 nM. Also, in series [2] (setting [5]), the solubility came out at 11 µM (≈ 4.87 µg/mL).

For the compound `O=C1NCCCCCCn2c(nc3ccccc32)NC(=O)c2cccc1c2` [Example 1, 1^1H-2,6-diaza-1(2,1)-benzo[d]imidazola-4(1,3)-benzenacyclododecaphane-3,5-dione], the IC50 in series [1] (setting [3]) was found to be 27 nM. For the same compound, the solubility in series [2] (setting [5]) came out at 1.2 µM (≈ 0.435 µg/mL).

For the compound `CC1CCCCNC(=O)c2cccc(c2)C(=O)Nc2nc3cccc(C(=O)N4CCN(C)CC4)c3n21` (stereo not shown) [Example 8, 11-methyl-1^7-(4-methylpiperazine-1-carbonyl)-1^1H-2,6-diaza-1(2,1)-benzo[d]imidazola-4(1,3)-benzenacycloundecaphane-3,5-dione], the IC50 in series [1] (setting [3]) was 5 nM. This compound had a solubility in series [2] (setting [5]) of 92.7 µM (≈ 45.3 µg/mL).

As for `CN1CCN(C(=O)c2cccc3nc4n(c23)CCCCCNC(=O)c2cccc(c2)C(=O)N4)CC1` [Example 10, 1^7-(4-methylpiperazine-1-carbonyl)-1^1H-2,6-diaza-1(2,1)-benzo[d]imidazola-4(1,3)-benzenacycloundecaphane-3,5-dione], the concentration for half-maximal inhibition (IC50) in series [1] (setting [3]) is 11 nM. Besides, the solubility in series [2] (setting [5]) is 28 µM (≈ 13.3 µg/mL).

With `CN1CCN(C(=O)c2ccc3c(c2)nc2n3CCCCCNC(=O)c3cccc(c3)C(=O)N2)CC1` [Example 11, 1^5-(4-methylpiperazine-1-carbonyl)-1^1H-2,6-diaza-1(2,1)-benzo[d]imidazola-4(1,3)-benzenacycloundecaphane-3,5-dione], the IC50 in series [1] (setting [3]) stood at 1 nM. Further, the solubility in series [2] (setting [5]) was determined as 4.8 µM (≈ 2.28 µg/mL).

For `O=C1NCCCCCn2c(nc3cc(C(=O)N4CCN(C5COC5)CC4)ccc32)NC(=O)c2cccc1c2` [Example 12, 1^5-(4-(oxetan-3-yl)piperazine-1-carbonyl)-1^1H-2,6-diaza-1(2,1)-benzo[d]imidazola-4(1,3)-benzenacycloundecaphane-3,5-dione], the half-maximal inhibitory concentration (IC50) in series [1] (setting [3]) was 1 nM. The solubility in series [2] (setting [5]) was found to be 31.1 µM (≈ 16.1 µg/mL).

On to `CC(C)(C)OC(=O)N1CCN(C(=O)c2ccc3c(c2)nc2n3CCCCCNC(=O)c3cccc(c3)C(=O)N2)CC1` [Example 13, tert-butyl 4-(3,5-dioxo-1^1H-2,6-diaza-1(2,1)-benzo[d]imidazola-4(1,3)-benzenacycloundecaphane-1^5-carbonyl)piperazine-1-carboxylate], for which the IC50 in series [1] (setting [3]) was determined as 1 nM. Also, the solubility in series [2] (setting [5]) was found to be 0.2 µM (≈ 0.112 µg/mL).

Consider `CC(C)(C)OC(=O)N1CCN(C(=O)c2cccc3nc4n(c23)CCCCCNC(=O)c2cccc(c2)C(=O)N4)CC1` [Example 14, tert-butyl 4-(3,5-dioxo-1^1H-2,6-diaza-1(2,1)-benzo[d]imidazola-4(1,3)-benzenacycloundecaphane-1^7-carbonyl)piperazine-1-carboxylate], for which the IC50 in series [1] (setting [3]) worked out at 11 nM. Besides, in series [2] (setting [5]), the solubility turned out to be 0.3 µM (≈ 0.168 µg/mL).

On to `CC1CCCCNC(=O)c2cccc(c2)C(=O)Nc2nc3cccc(C(=O)N4CCNCC4)c3n21` (stereo not shown) [Example 15, 11-methyl-1^7-(piperazine-1-carbonyl)-1^1H-2,6-diaza-1(2,1)-benzo[d]imidazola-4(1,3)-benzenacycloundecaphane-3,5-dione], for which the half-inhibitory concentration (IC50) in series [1] (setting [3]) came out at 5 nM. For the same compound, the solubility in series [2] (setting [5]) stood at 90.1 µM (≈ 42.8 µg/mL).

For the compound `O=C1NCCCCCn2c(nc3cc(C(=O)N4CCNCC4)ccc32)NC(=O)c2cccc1c2` [Example 16, 1^5-(piperazine-1-carbonyl)-1^1H-2,6-diaza-1(2,1)-benzo[d]imidazola-4(1,3)-benzenacycloundecaphane-3,5-dione], the IC50 in series [1] (setting [3]) was 3 nM. In series [2] (setting [5]), this compound gave a solubility of 78.8 µM (≈ 36.3 µg/mL).

As to `O=C1NCCCCCn2c(nc3cccc(C(=O)N4CCNCC4)c32)NC(=O)c2cccc1c2` [Example 17, 1^7-(piperazine-1-carbonyl)-1^1H-2,6-diaza-1(2,1)-benzo[d]imidazola-4(1,3)-benzenacycloundecaphane-3,5-dione], in series [1] (setting [3]), the IC50 amounted to 4 nM. This compound also returned a solubility in series [2] (setting [5]) of 93.6 µM (≈ 43.1 µg/mL).

For the compound `O=C1/N=C2\Nc3cccc(C(=O)N4CCN(C5COC5)CC4)c3N2CCCCCNC(=O)c2cccc1c2` [Example 19, (E)-1^7-(4-(oxetan-3-yl)piperazine-1-carbonyl)-1^2,1^3-dihydro-1^1H-2,6-diaza-1(2,1)-benzo[d]imidazola-4(1,3)-benzenacycloundecaphane-3,5-dione], the IC50 in series [1] (setting [3]) was determined as 7 nM. In series [2] (setting [5]), this compound had a solubility of 8.5 µM (≈ 4.39 µg/mL).

Take `C[C@@H]1CN(C)CCN1C(=O)c1cccc2c1N1CCCCCNC(=O)c3cccc(c3)C(=O)/N=C/1N2` [Example 20, (R,E)-1^7-(2,4-dimethylpiperazine-1-carbonyl)-1^2,1^3-dihydro-1^1H-2,6-diaza-1(2,1)-benzo[d]imidazola-4(1,3)-benzenacycloundecaphane-3,5-dione]: the 50% inhibitory concentration (IC50) in series [1] (setting [3]) came to 19 nM. The compound further gave a solubility in series [2] (setting [5]) of 35 µM (≈ 17.1 µg/mL).

For the compound `CN(C)[C@H]1CCN(C(=O)c2cccc3c2N2CCCCCNC(=O)c4cccc(c4)C(=O)/N=C/2N3)C1` [Example 21, (S,E)-1^7-(3-(dimethylamino)pyrrolidine-1-carbonyl)-1^2,1^3-dihydro-1^1H-2,6-diaza-1(2,1)-benzo[d]imidazola-4(1,3)-benzenacycloundecaphane-3,5-dione], in series [1] (setting [3]), the IC50 is 7 nM. The solubility in series [2] (setting [5]) stood at 85.1 µM (≈ 41.6 µg/mL).

For the compound `Cc1nnc(-c2cccc3c2N2/C(=N/C(=O)c4cccc(c4)C(=O)NCCCC[C@@H]2C)N3)n1C(C)C` [Example 134, (S,E)-1^7-(4-isopropyl-5-methyl-4H-1,2,4-triazol-3-yl)-11-methyl-1^2,1^3-dihydro-1^1H-2,6-diaza-1(2,1)-benzo[d]imidazola-4(1,3)-benzenacycloundecaphane-3,5-dione], the IC50 in series [1] (setting [3]) was 10 nM; in series [1] (setting [4]), 12 nM.

Consider `C[C@H]1CCCCNC(=O)c2cccc(c2)C(=O)/N=C2\Nc3cncc(C(=O)N(C)C)c3N21` [Example 145, (S,E)-N,N,11-trimethyl-3,5-dioxo-1^2,1^3-dihydro-1^1H-2,6-diaza-1(2,1)-imidazo[4,5-c]pyridina-4(1,3)-benzenacycloundecaphane-1^7-carboxamide], for which, in series [1] (setting [3]), the IC50 was 10 nM.

As for `C[C@H]1CCCCNC(=O)c2cccc(c2)C(=O)/N=C2\Nc3cccc(N4CCC(F)C4=O)c3N21` (stereo partly drawn) [Example 146, (11S,E)-1^7-(3-fluoro-2-oxopyrrolidin-1-yl)-11-methyl-1^2,1^3-dihydro-1^1H-2,6-diaza-1(2,1)-benzo[d]imidazola-4(1,3)-benzenacycloundecaphane-3,5-dione], the figures for the IC50 in series [1] (setting [3]) and in series [1] (setting [4]) were 5 nM and 9 nM, respectively.

For `Cc1noc(-c2cccc3c2N2/C(=N/C(=O)c4cccc(c4)C(=O)NCCCC[C@@H]2C)N3)n1` [Example 147, (S,E)-11-methyl-1^7-(3-methyl-1,2,4-oxadiazol-5-yl)-1^2,1^3-dihydro-1^1H-2,6-diaza-1(2,1)-benzo[d]imidazola-4(1,3)-benzenacycloundecaphane-3,5-dione], the IC50 in series [1] (setting [3]) was 5 nM.

As usually defined, the IC50 is the concentration needed to halve the response being measured. The solubility is the dissolved amount per volume that the medium holds. Read a low solubility as a poorly soluble substance.
